Measured values as given in PubChem BioAssay AID256 (DTP/NCI, 2004).
“And” between values parts separate entries of the source, which are not always exact repeats. Identical values can stand only once. Toxic doses and inconclusive results are not listed. How the source made its calls: active means survival T/C of 150% or more; inactive means T/C below 125% in these data.

Tested on: CD2F1 mice, L1210 leukemia ip, survival T/C
Assay: NCI In Vivo Anticancer Drug Screen. Data for tumor model L1210 Leukemia (intraperitoneal) in CD2F1 (CDF1) mice
Details: higher = longer survival
In short: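 Compound-dosed mice with transplantable tumor versus matched vehicle controls; endpoint ratio T/C reported.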

[1] = endpoint: mean survival time, dose: 100.0 mg/kg/injection, schedule: Q04DX003 (ip), vehicle: saline
[2] = endpoint: mean survival time, dose: 200.0 mg/kg/injection, schedule: Q04DX003 (ip), vehicle: saline
[3] = endpoint: mean survival time, dose: 400.0 mg/kg/injection, schedule: Q04DX003 (ip), vehicle: saline
[4] = endpoint: mean survival time, dose: 50.0 mg/kg/injection, schedule: Q01DX009 (ip), vehicle: saline with Tween-80
[5] = endpoint: mean survival time, dose: 100.0 mg/kg/injection, schedule: Q01DX001 (ip), vehicle: saline with Tween-80
[6] = endpoint: mean survival time, dose: 200.0 mg/kg/injection, schedule: Q01DX001 (ip), vehicle: saline with Tween-80
[7] = endpoint: mean survival time, dose: 100.0 mg/kg/injection, schedule: Q04DX003 (ip), vehicle: saline with Tween-80
[8] = endpoint: mean survival time, dose: 200.0 mg/kg/injection, schedule: Q04DX003 (ip), vehicle: saline with Tween-80
[9] = endpoint: mean survival time, dose: 400.0 mg/kg/injection, schedule: Q04DX003 (ip), vehicle: saline with Tween-80
[10] = endpoint: mean survival time, dose: 100.0 mg/kg/injection, schedule: Q01DX009 (ip), vehicle: saline with Tween-80
[11] = endpoint: mean survival time, dose: 200.0 mg/kg/injection, schedule: Q01DX009 (ip), vehicle: saline with Tween-80
[12] = endpoint: mean survival time, dose: 400.0 mg/kg/injection, schedule: Q01DX009 (ip), vehicle: saline with Tween-80
[13] = endpoint: mean survival time, dose: 100.0 mg/kg/injection, schedule: Q04DX002 (ip), vehicle: saline with Tween-80
[14] = endpoint: mean survival time, dose: 200.0 mg/kg/injection, schedule: Q04DX002 (ip), vehicle: saline with Tween-80
[15] = endpoint: mean survival time, dose: 400.0 mg/kg/injection, schedule: Q04DX002 (ip), vehicle: saline with Tween-80

Measured: T/C

O=S(=O)(O)SCC1NCCCN1
inactive: endpoint: mean survival time, dose: 12.5 mg/kg/injection, schedule: Q04DX002 (ip), vehicle: saline 108 % of control | endpoint: mean survival time, dose: 25.0 mg/kg/injection, schedule: Q04DX002 (ip), vehicle: saline 101 % of control | endpoint: mean survival time, dose: 50.0 mg/kg/injection, schedule: Q04DX002 (ip), vehicle: saline 101 % of control

CC1(C)CC(=O)c2cc([C@@H]3OC[C@@H](O)[C@H]3O)[nH]c2C1
inactive: endpoint: median survival time, dose: 12.5 mg/kg/injection, schedule: Q01DX005 (ip), vehicle: water 101 % of control | endpoint: median survival time, dose: 25.0 mg/kg/injection, schedule: Q01DX005 (ip), vehicle: water 101 % of control | endpoint: median survival time, dose: 50.0 mg/kg/injection, schedule: Q01DX005 (ip), vehicle: water 101 % of control | endpoint: median survival time, dose: 100.0 mg/kg/injection, schedule: Q01DX005 (ip), vehicle: water 94 % of control | endpoint: median survival time, dose: 200.0 mg/kg/injection, schedule: Q01DX005 (ip), vehicle: water 96 % of control

CSc1ccccc1C1=CCCCC1
inactive: [1] 95 % of control | [2] 93 % of control | [3] 98 % of control

CC12CCC(OC3CCCCO3)CC1=CCC1C2CCC2(C)C1CCC21CCNP(=O)(N(CCCl)CCCl)O1 (stereo not given)
inactive: endpoint: mean survival time, dose: 12.5 mg/kg/injection, schedule: Q01DX005 (ip), vehicle: other 100 % of control | endpoint: mean survival time, dose: 25.0 mg/kg/injection, schedule: Q01DX005 (ip), vehicle: other 91 % of control | endpoint: mean survival time, dose: 50.0 mg/kg/injection, schedule: Q01DX005 (ip), vehicle: other 95 % of control | endpoint: mean survival time, dose: 100.0 mg/kg/injection, schedule: Q01DX005 (ip), vehicle: other 95 % of control | endpoint: mean survival time, dose: 125.0 mg/kg/injection, schedule: Q01DX001 (ip), vehicle: Klucel (hydroxypropylcellulose) (HPC) 95 % of control | endpoint: mean survival time, dose: 250.0 mg/kg/injection, schedule: Q01DX001 (ip), vehicle: Klucel (hydroxypropylcellulose) (HPC) 96 % of control | endpoint: mean survival time, dose: 500.0 mg/kg/injection, schedule: Q01DX001 (ip), vehicle: Klucel (hydroxypropylcellulose) (HPC) 101 % of control | endpoint: mean survival time, dose: 1000.0 mg/kg/injection, schedule: Q01DX001 (ip), vehicle: Klucel (hydroxypropylcellulose) (HPC) 98 % of control

CCCCC=CC1CCCCC1 (mixture of isomers)
inactive: [1] 94 % of control | [2] 94 % of control | [3] 94 % of control

Cc1cccc(C)c1C1=NCCN1
inactive: endpoint: mean survival time, dose: 12.5 mg/kg/injection, schedule: Q01DX009 (ip), vehicle: saline with Tween-80 98 % of control | endpoint: mean survival time, dose: 25.0 mg/kg/injection, schedule: Q01DX009 (ip), vehicle: saline with Tween-80 98 % of control | [4] 98 % of control

Cc1nc2ccccc2[nH]1
inactive: [5] 102 % of control | [6] 105 % of control

CN1C2CCC1CNC2
inactive: [7] 103 % of control | [8] 101 % of control | [9] 103 % of control

COc1cc2cccc(OC)c(=O)c2c(O)c1OC
inactive: endpoint: mean survival time, dose: 100.0 mg/kg/injection, schedule: Q01DX001 (ip), vehicle: saline 98 % of control | endpoint: mean survival time, dose: 200.0 mg/kg/injection, schedule: Q01DX001 (ip), vehicle: saline 101 % of control | endpoint: mean survival time, dose: 400.0 mg/kg/injection, schedule: Q01DX001 (ip), vehicle: saline 101 % of control

CCOC(=O)/C=C/CP(=O)(OCC)OCC
inactive: endpoint: mean survival time, dose: 50.0 mg/kg/injection, schedule: Q01DX001 (ip), vehicle: carboxymethylcellulose (CMC) 102 % of control

Cc1ccc2c(C)nc(N=C(N)N)nc2c1
inactive: endpoint: mean survival time, dose: 18.8 mg/kg/injection, schedule: Q01DX009 (ip), vehicle: saline 103 % of control | endpoint: mean survival time, dose: 37.5 mg/kg/injection, schedule: Q01DX009 (ip), vehicle: saline 96 % of control

C=CC/C=C/C(C)(C)C
inactive: [4] 103 % of control | [10] 100 % of control | [11] 100 % of control

CCOC12CC3C4=CCOC5CC(=O)N6c7ccccc7C1(CCN2C4)C6C53 (stereo not given)
inactive: endpoint: mean survival time, dose: 5.0 mg/kg/injection, schedule: Q01DX001 (ip), vehicle: saline 98 % of control | endpoint: mean survival time, dose: 10.0 mg/kg/injection, schedule: Q01DX001 (ip), vehicle: saline 101 % of control | endpoint: mean survival time, dose: 20.0 mg/kg/injection, schedule: Q01DX001 (ip), vehicle: saline 95 % of control | endpoint: mean survival time, dose: 40.0 mg/kg/injection, schedule: Q01DX001 (ip), vehicle: saline 97 % of control

CC1=CC(=C2C=C(C)C(=O)C(C)=C2)C=C(C)C1=O
inactive: endpoint: mean survival time, dose: 50.0 mg/kg/injection, schedule: Q01DX001 (ip), vehicle: saline with Tween-80 87 % of control | [5] 87 % of control | [6] 91 % of control

O=CNc1ccccc1Cl
inactive: [10] 101 % of control | [7] 94 % of control | [11] 98 % of control | [8] 95 % of control | [12] 91 % of control | [9] 91 % of control

OC(Cc1ccccn1)c1ccccc1 (stereo not given)
inactive: [7] 95 % of control | [8] 101 % of control | [9] 98 % of control

Nc1ncnc2nc(-c3ccc(Cc4ccccc4)cc3)[nH]c12
inactive: endpoint: mean survival time, dose: 0.63 mg/kg/injection, schedule: Q01DX009 (ip), vehicle: saline 96 % of control | endpoint: mean survival time, dose: 1.25 mg/kg/injection, schedule: Q01DX009 (ip), vehicle: saline 95 % of control | endpoint: mean survival time, dose: 2.5 mg/kg/injection, schedule: Q01DX009 (ip), vehicle: saline 95 % of control

CC(C)C(=O)OCC(C)(C)COC(=O)C(C)C
inactive: [1] 87 % of control | [2] 87 % of control | [3] 94 % of control

CN(C)C(=O)C(O)C1CCCCC1 (stereo not given)
inactive: [13] 94 % of control | [14] 94 % of control | [15] 94 % of control

CN(C)C/C(=C\c1ccccc1)C(=O)c1ccccc1
inactive: endpoint: mean survival time, dose: 12.5 mg/kg/injection, schedule: Q04DX003 (ip), vehicle: other 98 % of control | endpoint: mean survival time, dose: 25.0 mg/kg/injection, schedule: Q04DX003 (ip), vehicle: other 97 % of control | endpoint: mean survival time, dose: 50.0 mg/kg/injection, schedule: Q04DX003 (ip), vehicle: other 101 % of control

COC(=O)Nc1ccc(Cl)cc1[N+](=O)[O-]
inactive: [13] 95 % of control | [14] 95 % of control | [15] 91 % of control

C[C@]12CC[C@H](O)C[C@@]1(O)CC[C@@H]1[C@@H]2CC[C@]2(C)[C@@H](c3ccc(=O)oc3)C[C@H]3O[C@]132
inactive: endpoint: mean survival time, dose: 2.5 mg/kg/injection, schedule: Q01DX009 (ip), vehicle: other 97 % of control | endpoint: mean survival time, dose: 5.0 mg/kg/injection, schedule: Q01DX009 (ip), vehicle: other 92 % of control | endpoint: mean survival time, dose: 10.0 mg/kg/injection, schedule: Q01DX009 (ip), vehicle: other 91 % of control

S=c1nc[nH]c2ccccc12
inactive: [5] 93 % of control | [13] 91 % of control and 105 % of control | [7] 95 % of control and 97 % of control | [6] 94 % of control | [14] 94 % of control and 102 % of control | [8] 86 % of control and 90 % of control | endpoint: mean survival time, dose: 400.0 mg/kg/injection, schedule: Q01DX001 (ip), vehicle: saline with Tween-80 88 % of control | [15] 91 % of control and 98 % of control

Nc1nc(SCc2ccc([N+](=O)[O-])cc2)c2[nH]cnc2n1
inactive: [10] 94 % of control | [7] 97 % of control | [11] 101 % of control | [8] 97 % of control | [12] 95 % of control | [9] 96 % of control

O=C(CC(c1ccccc1)C(C(=O)O)C(=O)O)c1ccccc1 (stereo not given)
inactive: endpoint: mean survival time, dose: 100.0 mg/kg/injection, schedule: Q04DX002 (ip), vehicle: other 97 % of control | endpoint: mean survival time, dose: 200.0 mg/kg/injection, schedule: Q04DX002 (ip), vehicle: other 101 % of control | endpoint: mean survival time, dose: 400.0 mg/kg/injection, schedule: Q04DX002 (ip), vehicle: other 104 % of control
